“And” between values parts separate entries of the source, which are not always exact repeats. Identical values can stand only once.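 Five concentrations, 48 hours, 96-well plates. GI50: concentration for 50% inhibition of growth. TGI denotes the concentration required for complete inhibition of growth.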
How the values were obtained:
Assay in all cases: NCI tumour cell line growth inhibition, 48 h
HT29 colon = system: HT29 colon
MOLT-4 leukemia = system: MOLT-4 leukemia
OVCAR-3 ovarian = system: OVCAR-3 ovarian
PC-3 prostate = system: PC-3 prostate
RPMI-8226 leukemia = system: RPMI-8226 leukemia
SF-268 CNS = system: SF-268 CNS
SF-295 CNS = system: SF-295 CNS
SK-MEL-2 melanoma = system: SK-MEL-2 melanoma
SK-MEL-5 melanoma = system: SK-MEL-5 melanoma
SR leukemia = system: SR leukemia

SMILES | GI50 (HT29 colon) [µM] | TGI (HT29 colon) | GI50 (MOLT-4 leukemia) [µM] | TGI (MOLT-4 leukemia) | GI50 (OVCAR-3 ovarian) [µM] | TGI (OVCAR-3 ovarian) | GI50 (PC-3 prostate) [µM] | TGI (PC-3 prostate) | GI50 (RPMI-8226 leukemia) [µM] | GI50 (SF-268 CNS) [µM] | TGI (SF-268 CNS) | GI50 (SF-295 CNS) [µM] | TGI (SF-295 CNS) | GI50 (SK-MEL-2 melanoma) [µM] | TGI (SK-MEL-2 melanoma) | GI50 (SK-MEL-5 melanoma) [µM] | TGI (SK-MEL-5 melanoma) | GI50 (SR leukemia) [µM] | TGI (SR leukemia) | TGI (RPMI-8226 leukemia) [µM]
Oc1ccc(Cl)cc1Sc1cc(Cl)ccc1O | 3.27 | 33 µM and 12.6 µM | 3.77 | > 100 µM and 24.7 µM | 2.79 | 15.4 µM and 6.8 µM | 2.72 | 30.1 µM and 9.58 µM | 1.97 | 3.51 | 31.9 µM and 13.4 µM | 2.37 | 30.9 µM and 6.43 µM | 2.17 | 24.2 µM and 5.56 µM | 1.92 | 15.7 µM and 4.06 µM | 3.53 | 51.6 µM and 12.2 µM | 
C[C@H]1COCCN1c1nc(-c2cnc(N)cc2C(F)F)nc(N2CCOCC2)n1 | 0.176 | > 100 µM | 0.225 | 33 µM | 0.224 | > 100 µM | 0.0985 | > 100 µM | 0.134 | 0.265 | > 100 µM | 0.119 | 0.645 µM | 0.232 | 1.12 µM | 0.15 | 0.651 µM | 0.275 | 29.1 µM | 4.91
COc1c(B(O)O)cccc1-c1nc2ccc3[nH]ncc3c2c2c1CCCC2 | 3.17 | 16.4 µM | 1.57 | > 34.6 µM | 3.43 | 12.3 µM | 2.41 | 40.6 µM | 0.936 | 1.95 | 12.5 µM | 1.89 | 12.6 µM | 3.4 | 8.78 µM | 3.18 | 12.5 µM | 1.13 | 13.9 µM | 7.01
Cn1cc(C2=C(c3cc[nH]c3)C(=O)NC2=O)c2ccccc21 | > 25 | > 25 µM | > 25 | > 25 µM | > 22.7 | > 25 µM | > 25 | > 25 µM | > 25 | > 25 | > 25 µM | > 25 | > 25 µM | > 25 | > 25 µM | > 25 | > 25 µM | 12 | > 25 µM | > 25
